Each molecule was assayed against recombinant human integrin αvβ6 (Homo sapiens (Human), UniProt P06756+P18564) (assay: Solid Phase Integrin αvβ6 Binding Assay (Examples B1, B2)). Details: TGFβ1 LAP ligand, values given in four ranges, read-out: αvβ6 Inhibition IC50 (nM)-range.
In short: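 Plates coated with recombinant human αvβ6 (2 μg/mL) compete compound against recombinant TGFβ1 LAP (0.67 μg/mL) in TBS binding buffer with 0.5 mM MnCl2, 2 h at 25 °C. Bound LAP detected with biotin-anti-hLAP and peroxidase-streptavidin; IC50 by four-parameter logistic regression.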

Chain of recombinant human integrin αvβ6 (P06756 31-992): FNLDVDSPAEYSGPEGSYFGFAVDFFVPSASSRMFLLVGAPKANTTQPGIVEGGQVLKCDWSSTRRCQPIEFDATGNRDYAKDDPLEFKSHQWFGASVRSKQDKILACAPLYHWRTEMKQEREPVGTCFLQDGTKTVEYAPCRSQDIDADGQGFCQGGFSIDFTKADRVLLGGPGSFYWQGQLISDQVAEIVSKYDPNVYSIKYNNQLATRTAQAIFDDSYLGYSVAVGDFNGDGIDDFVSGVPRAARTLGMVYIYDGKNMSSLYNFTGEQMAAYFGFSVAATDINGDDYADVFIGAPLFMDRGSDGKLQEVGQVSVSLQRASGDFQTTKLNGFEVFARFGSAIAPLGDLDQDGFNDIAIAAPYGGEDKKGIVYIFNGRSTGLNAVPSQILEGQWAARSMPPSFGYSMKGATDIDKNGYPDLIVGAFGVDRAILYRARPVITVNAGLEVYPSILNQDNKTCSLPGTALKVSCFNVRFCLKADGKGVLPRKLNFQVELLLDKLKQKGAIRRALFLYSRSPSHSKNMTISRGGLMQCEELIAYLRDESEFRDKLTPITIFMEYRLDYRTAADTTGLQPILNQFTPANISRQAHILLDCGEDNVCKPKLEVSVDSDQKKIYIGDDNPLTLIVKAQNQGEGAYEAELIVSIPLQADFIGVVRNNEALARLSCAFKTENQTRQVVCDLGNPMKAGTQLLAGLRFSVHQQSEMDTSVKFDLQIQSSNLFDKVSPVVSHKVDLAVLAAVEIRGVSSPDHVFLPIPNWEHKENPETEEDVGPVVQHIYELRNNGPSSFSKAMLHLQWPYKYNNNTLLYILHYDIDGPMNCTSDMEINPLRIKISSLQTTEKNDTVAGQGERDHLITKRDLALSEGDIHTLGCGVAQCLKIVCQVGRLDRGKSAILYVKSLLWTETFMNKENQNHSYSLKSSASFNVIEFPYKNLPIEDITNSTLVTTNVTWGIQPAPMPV
Chain of recombinant human integrin αvβ6 (P18564 22-707): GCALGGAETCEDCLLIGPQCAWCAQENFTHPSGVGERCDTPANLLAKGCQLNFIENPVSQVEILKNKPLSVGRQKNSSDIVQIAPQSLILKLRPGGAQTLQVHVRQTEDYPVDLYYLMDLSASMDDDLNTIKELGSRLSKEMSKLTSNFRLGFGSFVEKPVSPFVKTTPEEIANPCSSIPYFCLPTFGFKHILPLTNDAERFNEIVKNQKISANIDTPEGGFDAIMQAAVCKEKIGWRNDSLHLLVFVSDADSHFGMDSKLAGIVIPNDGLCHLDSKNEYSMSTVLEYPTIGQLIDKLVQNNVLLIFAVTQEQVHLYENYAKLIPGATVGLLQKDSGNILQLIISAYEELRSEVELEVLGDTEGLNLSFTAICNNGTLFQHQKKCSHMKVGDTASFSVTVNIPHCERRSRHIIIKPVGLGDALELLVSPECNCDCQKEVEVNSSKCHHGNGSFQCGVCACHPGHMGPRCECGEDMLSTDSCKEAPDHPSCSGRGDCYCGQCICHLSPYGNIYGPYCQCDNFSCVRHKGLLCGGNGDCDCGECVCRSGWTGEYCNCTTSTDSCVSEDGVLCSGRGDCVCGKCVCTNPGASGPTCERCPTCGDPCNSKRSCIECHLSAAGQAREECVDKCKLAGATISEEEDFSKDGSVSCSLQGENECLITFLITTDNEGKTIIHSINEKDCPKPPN

| IC50 [nM] | Compound |
| --- | --- |
| < 50 | CN(C)C(=O)CN(CCCCc1ccc2c(n1)NCCC2)CC[C@H](Nc1ncnc2ccccc12)C(=O)O [Compound 64, (S)-4-((2-(dimethylamino)-2-oxoethyl) (4-(5,6,7,8-tetrahydro-1,8-naphthyridin-2-yl)butyl)amino)-2-(quinazolin-4-ylamino) butanoic acid] |
| < 50 | CO[C@H](C)CN(CCCCc1ccc2c(n1)NCCC2)CC[C@H](Nc1nc(C)nc2cc(F)ccc12)C(=O)O [Compound 65, (S)-2-((7-fluoro-2-methylquinazolin-4-yl)amino)-4-(((R)-2-methoxypropyl) (4-(5,6,7,8-tetrahydro-1,8-naphthyridin-2-yl)butyl)amino) butanoic acid] |
| < 50 | CO[C@H](C)CN(CCCCc1ccc2c(n1)NCCC2)CC[C@H](Nc1nc(C)nc2ccccc12)C(=O)O [Compound 66, (S)-4-(((R)-2-methoxypropyl) (4-(5,6,7,8-tetrahydro-1,8-naphthyridin-2-yl)butyl)amino)-2-((2-methylquinazolin-4-yl)amino) butanoic acid] |
| < 50 | COCCN(CCCCc1ccc2c(n1)NCCC2)CC[C@H](Nc1nccnc1C#N)C(=O)O [Compound 67, (S)-2-((3-cyanopyrazin-2-yl)amino)-4-((2-methoxyethyl) (4-(5,6,7,8-tetrahydro-1,8-naphthyridin-2-yl)butyl)amino) butanoic acid] |
| < 50 | CO[C@H](C)CN(CCCCc1ccc2c(n1)NCCC2)CC[C@H](Nc1ncc(C#N)cn1)C(=O)O [Compound 68, (S)-2-((5-cyanopyrimidin-2-yl)amino)-4-(((R)-2-methoxypropyl) (4-(5,6,7,8-tetrahydro-1,8-naphthyridin-2-yl)butyl)amino) butanoic acid] |
| < 50 | CO[C@H](C)CN(CCCCc1ccc2c(n1)NCCC2)CC[C@H](Nc1ncc(C(F)(F)F)cn1)C(=O)O [Compound 69, (S)-4-(((R)-2-methoxypropyl) (4-(5,6,7,8-tetrahydro-1,8-naphthyridin-2-yl)butyl)amino)-2-((5-(trifluoromethyl)pyrimidin-2-yl)amino) butanoic acid] |
| < 50 | CO[C@H](C)CN(CCCCc1ccc2c(n1)NCCC2)CC[C@H](Nc1ncc(Br)cn1)C(=O)O [Compound 70, (S)-2-((5-bromopyrimidin-2-yl)amino)-4-(((R)-2-methoxypropyl) (4-(5,6,7,8-tetrahydro-1,8-naphthyridin-2-yl)butyl)amino) butanoic acid] |
| < 50 | CO[C@H](C)CN(CCCCc1ccc2c(n1)NCCC2)CC[C@H](Nc1ncnc2[nH]ncc12)C(=O)O [Compound 71, (S)-2-((1H-pyrazolo[3,4-d]pyrimidin-4-yl)amino)-4-(((R)-2-methoxypropyl) (4-(5,6,7,8-tetrahydro-1,8-naphthyridin-2-yl)butyl)amino) butanoic acid] |
| < 50 | CO[C@H](C)CN(CCCCc1ccc2c(n1)NCCC2)CC[C@H](Nc1ccnc(C(F)(F)F)n1)C(=O)O [Compound 72, (S)-4-(((R)-2-methoxypropyl) (4-(5,6,7,8-tetrahydro-1,8-naphthyridin-2-yl)butyl)amino)-2-((2-(trifluoromethyl)pyrimidin-4-yl)amino) butanoic acid] |
| < 50 | CO[C@H](C)CN(CCCCc1ccc2c(n1)NCCC2)CC[C@H](Nc1ccnc(-c2ccccc2)n1)C(=O)O [Compound 73, (S)-4-(((R)-2-methoxypropyl) (4-(5,6,7,8-tetrahydro-1,8-naphthyridin-2-yl)butyl)amino)-2-((2-phenylpyrimidin-4-yl)amino) butanoic acid] |
| < 50 | CO[C@H](C)CN(CCCCc1ccc2c(n1)NCCC2)CC[C@H](Nc1ncnc2c1cnn2C)C(=O)O [Compound 74, (S)-4-(((R)-2-methoxypropyl) (4-(5,6,7,8-tetrahydro-1,8-naphthyridin-2-yl)butyl)amino)-2-((1-methyl-1H-pyrazolo[3,4-d]pyrimidin-4-yl)amino) butanoic acid] |
| < 50 | O=C(O)[C@H](CCN(CCO)CCCCc1ccc2c(n1)NCCC2)Nc1ncnc2ccccc12 [Compound 75, (S)-4-((2-hydroxyethyl) (4-(5,6,7,8-tetrahydro-1,8-naphthyridin-2-yl)butyl)amino)-2-(quinazolin-4-ylamino) butanoic acid] |
| < 50 | CO[C@H](C)CN(CCCCc1ccc2c(n1)NCCC2)CC[C@H](Nc1nccnc1C#N)C(=O)O [Compound 76, (S)-2-((3-cyanopyrazin-2-yl)amino)-4-(((R)-2-methoxypropyl) (4-(5,6,7,8-tetrahydro-1,8-naphthyridin-2-yl)butyl)amino) butanoic acid] |
| < 50 | CO[C@H](C)CN(CCCCc1ccc2c(n1)NCCC2)CC[C@H](Nc1cc(-n2cccn2)ncn1)C(=O)O [Compound 77, (S)-2-((6-(1H-pyrazol-1-yl)pyrimidin-4-yl)amino)-4-(((R)-2-methoxypropyl) (4-(5,6,7,8-tetrahydro-1,8-naphthyridin-2-yl)butyl)amino) butanoic acid] |
| < 50 | CO[C@H](C)CN(CCCCc1ccc2c(n1)NCCC2)CC[C@H](Nc1ncc(F)cn1)C(=O)O [Compound 78, (S)-2-((5-fluoropyrimidin-2-yl)amino)-4-(((R)-2-methoxypropyl) (4-(5,6,7,8-tetrahydro-1,8-naphthyridin-2-yl)butyl)amino) butanoic acid] |
| < 50 | CO[C@H](C)CN(CCCCc1ccc2c(n1)NCCC2)CC[C@H](Nc1ncnc2cn[nH]c12)C(=O)O [Compound 79, (S)-2-((1H-pyrazolo[4,3-d]pyrimidin-7-yl)amino)-4-(((R)-2-methoxypropyl) (4-(5,6,7,8-tetrahydro-1,8-naphthyridin-2-yl)butyl)amino) butanoic acid] |
| < 50 | CO[C@H](C)CN(CCCCc1ccc2c(n1)NCCC2)CC[C@H](Nc1cc(-c2ccccc2)ncn1)C(=O)O [Compound 80, (S)-4-(((R)-2-methoxypropyl) (4-(5,6,7,8-tetrahydro-1,8-naphthyridin-2-yl)butyl)amino)-2-((6-phenylpyrimidin-4-yl)amino) butanoic acid] |
| < 50 | CO[C@H](C)CN(CCCCc1ccc2c(n1)NCCC2)CC[C@H](Nc1ncncc1-c1ccccc1)C(=O)O [Compound 81, (S)-4-(((R)-2-methoxypropyl) (4-(5,6,7,8-tetrahydro-1,8-naphthyridin-2-yl)butyl)amino)-2-((5-phenylpyrimidin-4-yl)amino) butanoic acid] |
| < 50 | Cn1ncc2c(N[C@@H](CCN(CCCCc3ccc4c(n3)NCCC4)CCOc3ccccc3)C(=O)O)ncnc21 [Compound 82, (S)-2-((1-methyl-1H-pyrazolo[3,4-d]pyrimidin-4-yl)amino)-4-((2-phenoxyethyl) (4-(5,6,7,8-tetrahydro-1,8-naphthyridin-2-yl)butyl)amino) butanoic acid] |
| < 50 | O=C(O)[C@H](CCN(CCCCc1ccc2c(n1)NCCC2)CCOc1ccccc1)Nc1ncc(Br)cn1 [Compound 83, (S)-2-((5-bromopyrimidin-2-yl)amino)-4-((2-phenoxyethyl) (4-(5,6,7,8-tetrahydro-1,8-naphthyridin-2-yl)butyl)amino) butanoic acid] |
| > 1000 | Cn1ncc2c(N[C@@H](CCN(CCCCc3ccc4c(n3)NCCC4)CC(F)F)C(=O)O)ncnc21 [Compound 88, (S)-4-((2,2-difluoroethyl) (4-(5,6,7,8-tetrahydro-1,8-naphthyridin-2-yl)butyl)amino)-2-((1-methyl-1H-pyrazolo[3,4-d]pyrimidin-4-yl)amino) butanoic acid] |
| < 50 | O=C(O)[C@H](CCN(CCCCc1ccc2c(n1)NCCC2)CCOc1ccccc1)Nc1ncc(C(F)(F)F)cn1 [Compound 89, (S)-4-((2-phenoxyethyl) (4-(5,6,7,8-tetrahydro-1,8-naphthyridin-2-yl)butyl)amino)-2-((5-(trifluoromethyl)pyrimidin-2-yl)amino) butanoic acid] |
| < 50 | O=C(O)[C@H](CCN(CCCCc1ccc2c(n1)NCCC2)CCOc1ccccc1)Nc1ncnc2[nH]ncc12 [Compound 90, (S)-2-((1H-pyrazolo[3,4-d]pyrimidin-4-yl)amino)-4-((2-phenoxyethyl) (4-(5,6,7,8-tetrahydro-1,8-naphthyridin-2-yl)butyl)amino) butanoic acid] |
| < 50 | O=C(O)[C@H](CCN(CCCCc1ccc2c(n1)NCCC2)CCOc1ccccc1)Nc1cc(-n2cccn2)ncn1 [Compound 91, (S)-2-((6-(1H-pyrazol-1-yl)pyrimidin-4-yl)amino)-4-((2-phenoxyethyl) (4-(5,6,7,8-tetrahydro-1,8-naphthyridin-2-yl)butyl)amino) butanoic acid] |
| < 50 | O=C(O)[C@H](CCN(CCCCc1ccc2c(n1)NCCC2)CCOc1ccccc1)Nc1ccnc(C(F)(F)F)n1 [Compound 92, (S)-4-((2-phenoxyethyl) (4-(5,6,7,8-tetrahydro-1,8-naphthyridin-2-yl)butyl)amino)-2-((2-(trifluoromethyl)pyrimidin-4-yl)amino) butanoic acid] |
| < 50 | O=C(O)[C@H](CCN(CCCCc1ccc2c(n1)NCCC2)CCOc1ccccc1)Nc1cc(-c2ccccc2)ncn1 [Compound 93, (S)-4-((2-phenoxyethyl) (4-(5,6,7,8-tetrahydro-1,8-naphthyridin-2-yl)butyl)amino)-2-((6-phenylpyrimidin-4-yl)amino) butanoic acid] |
| < 50 | O=C(O)[C@H](CCN(CCCCc1ccc2c(n1)NCCC2)CCOc1ccccc1)Nc1nc(-c2cccnc2)nc2ccccc12 [Compound 94, (S)-4-((2-phenoxyethyl) (4-(5,6,7,8-tetrahydro-1,8-naphthyridin-2-yl)butyl)amino)-2-((2-(pyridin-3-yl)quinazolin-4-yl)amino) butanoic acid] |
| > 1000 | O=C(O)[C@H](CCN(CCCCc1ccc2c(n1)NCCC2)CC(F)F)Nc1ncc(C(F)(F)F)cn1 [Compound 95, (S)-4-((2,2-difluoroethyl) (4-(5,6,7,8-tetrahydro-1,8-naphthyridin-2-yl)butyl)amino)-2-((5-(trifluoromethyl)pyrimidin-2-yl)amino) butanoic acid] |
